Source: US11242327B2, “Analgesic compounds” (RECURIUM IP HOLDINGS, LLC, priority 2017, dated 2022)

Columns and labels:
Opiate μ = Opiate μ (Homo sapiens, UniProt P35372); test: NSAIDS and Opioid Receptor Test: Opiate μ; type: binding; conditions: 10 μM
Method: Compounds were screened as DMSO solutions at 10 μM, 100 μM, or 200 μM and values represent percent inhibition of control-specific binding. […] As NSAID and opioid mechanisms of action are precluded, a person of ordinary skill in the art understands that undesirable side effects associated with inhibition of COX receptors in NSAIDs and activation of opiate receptors in opioids can be avoided by compounds described herein. Furthermore, opioids are known to lose their analgesic potency after to continued administration. (See Benyamin, et al. “Opioid Complications and Side Effects” Pain Physician 11 (2008): S105-S120). As the data indicates compounds described herein have a different mechanism action compared to opioids, a person of ordinary skill in the art would appreciate that compounds described herein would not be expected to lose their analgesic potency like opioids after continued admininistration.

male Sprague-Dawley rats [1] = test: Osteoarthritis Pain Test (MIA, mechanical hyperalgesia); type: in vivo; conditions: rat; for joint compression threshold, Day 3, 1 h: Day 3, 1 h post-dosing; for joint compression threshold, Day 3, 2 h: Day 3, 2 h post-dosing; for joint compression threshold, Day 3, 4 h: Day 3, 4 h post-dosing; for joint compression threshold, Day 6, 1 h: Day 6, 1 h post-dosing; for joint compression threshold, Day 6, 2 h: Day 6, 2 h post-dosing; for joint compression threshold, Day 6, 4 h: Day 6, 4 h post-dosing; for joint compression threshold, Day 0, 1 h: Day 0, 1 h post-dosing; for joint compression threshold, Day 0, 2 h: Day 0, 2 h post-dosing; for joint compression threshold, Day 0, 4 h: Day 0, 4 h post-dosing
Method: Osteoarthritis pain was induced in non-fasted male Sprague-Dawley rats weighing 150-250 g by injecting 2 mg of monosodium iodoacetate (MIA) into the left knee joint. Mechanical hyperalgesia was measured using a digital Randall-Selitto device (dRS; IITC Life Sciences©; Woodland Hills, Calif.). Animals were allowed to acclimate to the testing room for a minimum of 15 minutes before testing. Animals were placed in a restraint sling that suspended the animal, leaving the hind limbs available for testing. The stimulus was applied to the knee joint by a blunt tip and pressure was applied gradually over approximately 10 seconds. Joint compression threshold values were recorded at the first observed nocifensive behavior (vocalization, struggle, or withdrawal). One reading per joint was taken at each time point, and a maximum stimulus cutoff of 500 grams was used to prevent injury to the animal. Mechanical hyperalgesia was assessed prior to MIA injection, and again 14 days later. After 14 days, test or control articles were administered once daily for 7 days with mechanical hyperalgesia assessed prior to dosing, 1, 2, and 4 hours post-dosing on days 0, 3, and 6. Test compounds were administered orally at concentrations of 3, 10, 30 or 100 mg/kg and celecoxib was administered orally at a concentration of 30 mg/kg. The control group received the vehicle (sterile water). After day 0, groups receiving the 100 mg/kg dose were reduced to a dose of 3 mg/kg. In Table 5, ‘A’ designates ≥375 grams of joint compression, ‘B’ designates ≥325 and <375 grams of joint compression, and ‘C’ designates <325 grams of joint compression.
The results provided in Table 5 are for oral administration in rats.

male Sprague-Dawley rats [2] = test: Spinal Nerve Ligation (SNL) Neuropathic Pain Test; type: in vivo; conditions: rat, oral; for 50% response threshold, 1 h: 1 h after administration; for 50% response threshold, 2 h: 2 h after administration; for 50% response threshold, 4 h: 4 h after administration
Method: Neuropathy was induced in non-fasted male Sprague-Dawley rats weighing 75-100 g by surgically ligating the 4th and 5th lumbar spinal nerves (L4 and L5), a procedure also known as spinal nerve ligation (SNL). Animals were placed in individual acrylic chambers on a metal mesh surface and allowed to acclimate to their surroundings for a minimum of 15 minutes before testing. Mechanical sensitivity was assessed using 8 Semmes-Weinstein filaments (Stoelting©; Wood Dale, Ill., USA) with varying stiffness (0.4, 0.6, 1.0, 2.0, 4.0, 6.0, 8.0, and 15 g) according to an up-down method to determine 50% response thresholds. Each filament was presented perpendicular to the plantar surface with sufficient force to cause slight buckling against the paw and held for approximately 6 seconds or until a positive response is noted (paw sharply withdrawn). Testing was initiated with the 2.0 g filament. In the absence of a paw withdrawal response, the next stronger stimulus was presented. In the event of paw withdrawal, the next weaker stimulus was used. This process was repeated until 4 responses after the initial change in response (no response to positive response or positive response to no response) were obtained. […] The 50% response threshold was calculated using the formula: 50% response threshold (g)=(10^(Xf+kδ))/10,000;
Xf=value (in log units) of the final von Frey filament used;
k=tabular value for the pattern of positive/negative responses (See Chaplan, et al. “Quantitative Assessment of Tactile Allodynia in the Rat Paw” J. Neurosci. Meth. 53.1 (1994): 56-63);
[…] =mean difference (in log units) between stimuli.
The mean and standard error of the mean (SEM) were determined for each paw for each treatment group at each time point. Thresholds were determined prior to surgery and again 14 days later. After 14 days, test or control compounds were administered and thresholds were again determined 1, 2, and 4 hours after compound administration. Median response thresholds in compound-treated animals were compared to those in vehicle treated animals to determine anti-allodynic efficacy of test and control compounds. Test compounds were administered orally at concentrations of 10, 30 or 100 mg/kg and gabapentin was administered orally at a concentration of 100 mg/kg. The control group received the vehicle (sterile water). In Table 7, ‘A’ designates a 50% threshold of ≥8 grams, ‘B’ designates a 50% threshold of ≥6 and <8 grams, and ‘C’ designates a 50% threshold of <6 grams.
The results provided in Table 7 are for oral administration in rats.

[3] = oral once daily, 3 mg/kg (group had 100 mg/kg on day 0)

Chain of Opiate μ (P35372 whole entry): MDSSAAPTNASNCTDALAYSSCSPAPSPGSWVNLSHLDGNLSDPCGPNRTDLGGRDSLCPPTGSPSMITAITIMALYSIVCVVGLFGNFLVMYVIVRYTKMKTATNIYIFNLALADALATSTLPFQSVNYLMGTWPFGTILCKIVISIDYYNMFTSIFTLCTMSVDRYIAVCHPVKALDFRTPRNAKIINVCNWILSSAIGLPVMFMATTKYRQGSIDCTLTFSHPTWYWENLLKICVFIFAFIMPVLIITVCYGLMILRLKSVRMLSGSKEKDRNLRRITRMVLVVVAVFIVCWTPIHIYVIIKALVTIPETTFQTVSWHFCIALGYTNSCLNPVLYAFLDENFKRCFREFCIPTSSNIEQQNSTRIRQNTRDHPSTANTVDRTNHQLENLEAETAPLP

Cc1sc(C23CC(N)(C2)C3)nc1C(F)(F)F.Cl [Compound 2, 3-(5-Methyl-4-(trifluoromethyl)thiazol-2-yl)bicyclo[1.1.1]pentan-1-amine hydrochloride]
inhibition at 10 µM (Opiate μ): 9% | joint compression threshold, Day 3, 1 h (male Sprague-Dawley rats [1]; [3]): A (≥375 grams of joint compression) | joint compression threshold, Day 3, 2 h (male Sprague-Dawley rats [1]; [3]): A (≥375 grams of joint compression) | joint compression threshold, Day 3, 4 h (male Sprague-Dawley rats [1]; [3]): A (≥375 grams of joint compression) | joint compression threshold, Day 6, 1 h (male Sprague-Dawley rats [1]; [3]): B (≥325 and <375 grams of joint compression) | joint compression threshold, Day 6, 2 h (male Sprague-Dawley rats [1]; [3]): B (≥325 and <375 grams of joint compression) | joint compression threshold, Day 6, 4 h (male Sprague-Dawley rats [1]; [3]): B (≥325 and <375 grams of joint compression) | joint compression threshold, Day 0, 1 h (male Sprague-Dawley rats [1]; oral once daily, 10 mg/kg): C (<325 grams of joint compression) | joint compression threshold, Day 0, 2 h (male Sprague-Dawley rats [1]; oral once daily, 10 mg/kg): C (<325 grams of joint compression) | joint compression threshold, Day 0, 4 h (male Sprague-Dawley rats [1]; oral once daily, 10 mg/kg): C (<325 grams of joint compression) | joint compression threshold, Day 3, 1 h (male Sprague-Dawley rats [1]; oral once daily, 10 mg/kg): B (≥325 and <375 grams of joint compression) | joint compression threshold, Day 3, 2 h (male Sprague-Dawley rats [1]; oral once daily, 10 mg/kg): A (≥375 grams of joint compression) | joint compression threshold, Day 3, 4 h (male Sprague-Dawley rats [1]; oral once daily, 10 mg/kg): C (<325 grams of joint compression) | joint compression threshold, Day 6, 1 h (male Sprague-Dawley rats [1]; oral once daily, 10 mg/kg): B (≥325 and <375 grams of joint compression) | joint compression threshold, Day 6, 2 h (male Sprague-Dawley rats [1]; oral once daily, 10 mg/kg): B (≥325 and <375 grams of joint compression) | joint compression threshold, Day 6, 4 h (male Sprague-Dawley rats [1]; oral once daily, 10 mg/kg): A (≥375 grams of joint compression) | joint compression threshold, Day 0, 1 h (male Sprague-Dawley rats [1]; oral once daily, 30 mg/kg): B (≥325 and <375 grams of joint compression) | joint compression threshold, Day 0, 2 h (male Sprague-Dawley rats [1]; oral once daily, 30 mg/kg): B (≥325 and <375 grams of joint compression) | joint compression threshold, Day 0, 4 h (male Sprague-Dawley rats [1]; oral once daily, 30 mg/kg): B (≥325 and <375 grams of joint compression) | joint compression threshold, Day 3, 1 h (male Sprague-Dawley rats [1]; oral once daily, 30 mg/kg): B (≥325 and <375 grams of joint compression) | joint compression threshold, Day 3, 2 h (male Sprague-Dawley rats [1]; oral once daily, 30 mg/kg): B (≥325 and <375 grams of joint compression) | joint compression threshold, Day 3, 4 h (male Sprague-Dawley rats [1]; oral once daily, 30 mg/kg): B (≥325 and <375 grams of joint compression) | joint compression threshold, Day 6, 1 h (male Sprague-Dawley rats [1]; oral once daily, 30 mg/kg): B (≥325 and <375 grams of joint compression) | joint compression threshold, Day 6, 2 h (male Sprague-Dawley rats [1]; oral once daily, 30 mg/kg): B (≥325 and <375 grams of joint compression) | joint compression threshold, Day 6, 4 h (male Sprague-Dawley rats [1]; oral once daily, 30 mg/kg): A (≥375 grams of joint compression) | joint compression threshold, Day 0, 1 h (male Sprague-Dawley rats [1]; oral, 100 mg/kg): A (≥375 grams of joint compression) | joint compression threshold, Day 0, 2 h (male Sprague-Dawley rats [1]; oral, 100 mg/kg): A (≥375 grams of joint compression) | joint compression threshold, Day 0, 4 h (male Sprague-Dawley rats [1]; oral, 100 mg/kg): A (≥375 grams of joint compression) | 50% response threshold, 1 h (male Sprague-Dawley rats [2]; 10 mg/kg): C (a 50% threshold of <6 grams) | 50% response threshold, 2 h (male Sprague-Dawley rats [2]; 10 mg/kg): C (a 50% threshold of <6 grams) | 50% response threshold, 4 h (male Sprague-Dawley rats [2]; 10 mg/kg): C (a 50% threshold of <6 grams) | 50% response threshold, 1 h (male Sprague-Dawley rats [2]; 30 mg/kg): C (a 50% threshold of <6 grams) | 50% response threshold, 2 h (male Sprague-Dawley rats [2]; 30 mg/kg): C (a 50% threshold of <6 grams) | 50% response threshold, 4 h (male Sprague-Dawley rats [2]; 30 mg/kg): C (a 50% threshold of <6 grams) | 50% response threshold, 1 h (male Sprague-Dawley rats [2]; 100 mg/kg): A (a 50% threshold of ≥8 grams) | 50% response threshold, 2 h (male Sprague-Dawley rats [2]; 100 mg/kg): A (a 50% threshold of ≥8 grams) | 50% response threshold, 4 h (male Sprague-Dawley rats [2]; 100 mg/kg): B (a 50% threshold of ≥6 and <8 grams)
